Target: T1, TRPV3 (G573S) (Homo sapiens, UniProt Q8NET8, G573S)
T1 construct: host or cells: HEK 293T (transient transfection, pEGFP-N1 co-transfected as a marker)
T1 sequence (Q8NET8 1-790 G573S): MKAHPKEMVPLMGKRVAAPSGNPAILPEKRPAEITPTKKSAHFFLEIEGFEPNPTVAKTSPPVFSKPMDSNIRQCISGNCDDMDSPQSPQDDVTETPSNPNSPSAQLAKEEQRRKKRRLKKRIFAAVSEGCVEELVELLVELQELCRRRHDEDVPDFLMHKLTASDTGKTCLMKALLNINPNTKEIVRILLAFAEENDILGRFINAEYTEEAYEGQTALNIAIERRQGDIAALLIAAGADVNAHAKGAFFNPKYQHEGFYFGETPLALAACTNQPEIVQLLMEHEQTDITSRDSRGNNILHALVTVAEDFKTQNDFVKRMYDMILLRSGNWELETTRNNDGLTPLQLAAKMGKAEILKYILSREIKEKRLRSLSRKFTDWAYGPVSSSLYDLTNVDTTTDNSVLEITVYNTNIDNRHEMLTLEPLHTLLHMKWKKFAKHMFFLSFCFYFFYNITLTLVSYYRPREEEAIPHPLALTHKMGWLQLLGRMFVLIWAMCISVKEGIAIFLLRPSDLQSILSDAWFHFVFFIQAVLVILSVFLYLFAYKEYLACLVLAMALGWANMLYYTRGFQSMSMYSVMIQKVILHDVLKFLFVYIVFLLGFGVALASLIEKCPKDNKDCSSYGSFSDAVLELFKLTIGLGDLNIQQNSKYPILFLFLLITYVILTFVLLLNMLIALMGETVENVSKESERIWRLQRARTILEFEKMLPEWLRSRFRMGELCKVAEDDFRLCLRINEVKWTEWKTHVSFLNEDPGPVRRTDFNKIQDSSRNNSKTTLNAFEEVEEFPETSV
Test: Fura-2 calcium imaging, spontaneous Ca2+ increase in TRPV3 (G573S)-expressing HEK 293T cells
Format: cell-based
Conditions: 1 µM
From the text: Figure 4 Alpha-mangostin inhibited the activity of hyperactive TRPV3 mutant channels and rescued mutation-induced cell death. (A) Alpha-mangostin inhibited the channel current in representative TRPV3 (G573S)- and TRPV3 (G573C)-expressing HEK 293T cells. […] Currents were normalized to the response at −100 mV before adding alpha-mangostin. (C) Alpha-mangostin inhibited TRPV3-mediated intracellular calcium increase in TRPV3 (G573S)-expressing HEK 293T cells. […] The bar graph on the right summarizes the change in the intracellular calcium rise inhibited by alpha-mangostin. […]
Subsequently, the effects of alpha-mangostin on the activities of the mutated channels were further evaluated using intracellular calcium measurements.
Fura-2 AM (Thermo Fisher Scientific) was utilized as a fluorescent indicator to measure calcium signal, as described previously. […] To measure the cytosolic Ca^2+ level, a sequential excitation of Fura-2 is performed at 340 nm and 380 nm; then, the emission signals resulting from each excitation wavelength are measured and the ratio of these signals is calculated. […] Samples were excited using a wavelength of 380 nm for 20 ms, followed by 340 nm for 100 ms, and fluorescence at 510 nm was recorded. Recorded data were then analyzed using NIS-Element AR Version 5.00.00 (Nikon Instruments, Melville, NY, USA). […]

COc1c(O)cc2oc3cc(O)c(CC=C(C)C)c(O)c3c(=O)c2c1CC=C(C)C [Alpha-mangostin]
Effect on spontaneous intracellular calcium increase: potently attenuated
